According to BindingDB's records for doi:10.1021/jm960395q (Shionogi, 1996):

Target: Phospholipase A2 (Homo sapiens, UniProt P04054)
Assay: Inhibition of recombinant human secretory phospholipase A2 (sPLA2), chromogenic screening assay.

Chain of Phospholipase A2 (P04054 whole entry): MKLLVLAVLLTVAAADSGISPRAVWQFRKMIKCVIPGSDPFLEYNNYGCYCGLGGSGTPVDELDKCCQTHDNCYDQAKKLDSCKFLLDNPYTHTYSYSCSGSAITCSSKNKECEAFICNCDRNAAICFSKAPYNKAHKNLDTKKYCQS

Row | IC50 [nM] | Structure (SMILES)
1 | > 50000 | CCc1c(C(=O)C(=O)N(C)C)c2c(OCC(=O)O)cccn2c1Cc1ccccc1 [(3-Benzyl-1-dimethylaminooxalyl-2-ethyl-indolizin-8-yloxy)-acetic acid]
2 | 1300 | CCc1c(C(=O)C(N)=O)c2c(OCCCCC(=O)O)cccn2c1Cc1ccccc1-c1ccccc1 [5-(1-Aminooxalyl-3-biphenyl-2-ylmethyl-2-ethyl-indolizin-8-yloxy)-pentanoic acid]
3 | 83 | CCc1c(C(=O)C(N)=O)c2c(OCc3ccncc3)cccn2c1Cc1ccccc1-c1ccccc1 [2-[3-Biphenyl-2-ylmethyl-2-ethyl-8-(pyridin-4-ylmethoxy)-indolizin-1-yl]-2-oxo-acetamide]
4 | 100 | COC(=O)COc1cccn2c(Cc3ccccc3-c3ccccc3)c(C(C)(C)C)c(C(=O)C(N)=O)c12 [(1-Aminooxalyl-3-biphenyl-2-ylmethyl-2-tert-butyl-indolizin-8-yloxy)-acetic acid methyl ester]
5 | 6600 | CCc1c(C(=O)C(N)=O)c2c(OCC(=O)O)cccn2c1Cc1cc(C(C)(C)C)cc(C(C)(C)C)c1 [[1-Aminooxalyl-3-(3,5-di-tert-butyl-benzyl)-2-ethyl-indolizin-8-yloxy]-acetic acid]
6 | 46 | CCc1c(C(=O)C(N)=O)c2c(OCc3ccccn3)cccn2c1Cc1ccccc1-c1ccccc1 [2-[3-Biphenyl-2-ylmethyl-2-ethyl-8-(pyridin-2-ylmethoxy)-indolizin-1-yl]-2-oxo-acetamide]
7 | 3400 | CCc1c(C(=O)C(N)=O)c2c(OCCCC(=O)O)cccn2c1CC1CCCCC1 [4-(1-Aminooxalyl-3-cyclohexylmethyl-2-ethyl-indolizin-8-yloxy)-butyric acid]
8 | 1100 | CCc1c(Cc2ccccc2)c2ccc(OCCCC(=O)O)cn2c1C(=O)C(N)=O [4-(3-Aminooxalyl-1-benzyl-2-ethyl-indolizin-6-yloxy)-butyric acid]
9 | 200 | CCc1c(C(=O)C(N)=O)c2c(OCCCC(=O)O)cccn2c1Cc1ccccc1 [4-(1-Aminooxalyl-3-benzyl-2-ethyl-indolizin-8-yloxy)-butyric acid]
10 | 17 | CCc1c(C(=O)C(N)=O)c2c(OCC(=O)OC)cccn2c1Cc1ccccc1-c1ccccc1 [(1-Aminooxalyl-3-biphenyl-2-ylmethyl-2-ethyl-indolizin-8-yloxy)-acetic acid methyl ester]
11 | 51 | CCc1c(C(=O)C(N)=O)c2c(OCC(=O)O)cccn2c1CCc1ccccc1 [(1-Aminooxalyl-2-ethyl-3-phenethyl-indolizin-8-yloxy)-acetic acid]
12 | 120 | Cc1c(C(=O)C(N)=O)c2c(OCC(=O)O)cccn2c1CC12C[C@H]3C[C@@H](C1)C[C@@H](C2)C3 [(3-Adamantan-1-ylmethyl-1-aminooxalyl-2-methyl-indolizin-8-yloxy)-acetic acid]
13 | 140 | CCc1c(C(=O)C(N)=O)c2cc(OCCCC(=O)O)ccn2c1Cc1ccccc1-c1ccccc1
14 | 62 | CCCCCc1c(CC)c(C(=O)C(N)=O)c2c(OCC(=O)O)cccn12 [(1-Aminooxalyl-2-ethyl-3-pentyl-indolizin-8-yloxy)-acetic acid]
15 | > 50000 | CCc1c(C(=O)C(=O)NC)c2c(OCC(=O)O)cccn2c1Cc1ccccc1 [(3-Benzyl-2-ethyl-1-methylaminooxalyl-indolizin-8-yloxy)-acetic acid]
16 | 4400 | NC(=O)C(=O)c1c(C2CC2)c(Cc2ccccc2-c2ccccc2)n2cccc(OCCCC(=O)O)c12 [4-(1-Aminooxalyl-3-biphenyl-2-ylmethyl-2-cyclopropyl-indolizin-8-yloxy)-butyric acid]
17 | 80 | CCc1c(CC(N)=O)c2c(OCCCC(=O)O)cccn2c1Cc1ccccc1-c1ccccc1 [4-(3-Biphenyl-2-ylmethyl-1-carbamoylmethyl-2-ethyl-indolizin-8-yloxy)-butyric acid]
18 | 16 | CSc1c(C(=O)C(N)=O)c2c(OCC(=O)O)cccn2c1Cc1ccccc1-c1ccccc1 [(1-Aminooxalyl-3-biphenyl-2-ylmethyl-2-methylsulfanyl-indolizin-8-yloxy)-acetic acid]
